Laboratory results taken from patent US9988430B2, “Stable GLP-1 based GLP-1/glucagon receptor co-agonists” (Novo Nordisk A/S, priority 2014, dated 2018).
*1 amine or outer side, *2 acyl side, *3 side chain or, on linkers, in order; H or OH if unused. Where a SMILES comes first, the peptide text is derived from it. Side-chain parts run from the residue outwards. [ ]: non-standard residue; d: D form. The star is where a group is joined. C20 diacid = O=C(O)CCCCCCCCCCCCCCCCCCC(=O)*; C18 diacid = O=C(O)CCCCCCCCCCCCCCCCC(=O)*; γGlu = O=C(O)[C@H](CCC(=O)[*:2])N[*:1]; Desaminohistidyl = O=C(CCc1c[nH]cn1)*; Ac4c = NC1(C(=O)O)CCC1; AEEA = NCCOCCOCC(=O)O; Aib = CC(C)(N)C(=O)O

Target: T1, human GLP-1 receptor (Homo sapiens, UniProt P43220)
T1 construct: expressed in transfected cells; host or cells: membranes of BHK cells, parent line BHKTS13, clone FCW467-12A
T1 sequence (P43220 24-463): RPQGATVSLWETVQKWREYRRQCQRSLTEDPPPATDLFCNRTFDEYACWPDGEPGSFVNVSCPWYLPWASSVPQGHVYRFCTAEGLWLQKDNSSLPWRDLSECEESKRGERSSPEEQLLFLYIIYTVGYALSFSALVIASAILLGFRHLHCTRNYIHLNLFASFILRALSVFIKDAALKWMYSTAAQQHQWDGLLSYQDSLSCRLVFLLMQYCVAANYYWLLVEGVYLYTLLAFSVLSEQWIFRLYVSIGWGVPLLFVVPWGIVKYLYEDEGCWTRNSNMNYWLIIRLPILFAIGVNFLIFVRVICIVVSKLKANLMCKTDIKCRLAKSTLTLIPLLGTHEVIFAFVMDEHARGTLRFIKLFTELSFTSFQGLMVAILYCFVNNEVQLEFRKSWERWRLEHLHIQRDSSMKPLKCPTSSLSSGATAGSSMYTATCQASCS
Experiment: Assay (II)(a): GLP-1 receptor binding, [125I]GLP-1 displacement, SPA on BHK membranes
Conditions: displacement of [125I]GLP-1, membranes with human GLP-1 receptor; read-out: IC50 GLP-1R
Procedure: Assay (II): GLP-1 and Glucagon Receptor Binding The purpose of this assay is to test the in vitro receptor binding activity of the GLP-1 derivatives of the invention. (a) GLP-1 Receptor Binding The GLP-1 receptor (GLP-1R) binding is a measure of the affinity of a derivative for the human GLP-1 receptor. The GLP-1 receptor binding of each derivatives were determined with competitive binding, displacing [^125I]GLP-1 bound to GLP-1 receptors expressed in cell membranes associated with wheat germ agglutinin (WGA) scintillation proximity assay (SPA) beads. Each derivative was added in a series of concentrations to isolated membranes comprising the human GLP-1 receptor and displacement of the labelled radioligand was monitored. The receptor binding was reported as the concentration at which half of the labelled ligand is displaced from the receptor, the IC^50 value. The following chemicals were used in the assay: MEM w/o phenol red (Gibco 11880-028), Pen/strep (Invitrogen 15140-122), G418 (Invitrogen 10131-027), 1 M Hepes (Gibco 15630), EDTA (Invitrogen 15575-038), PBS (Invitrogen 14190-094), fetal calf serum (Invitrogen 16140-071), EGTA, MgCl2 (Merck 1.05832.1000), Tween 20 (Amresco 0850C335), SPA particles (wheat germ agglutinin (WGA) SPA beads, Perkin Elmer RPNQ0001), [125I]-GLP-1]-(7-36)NH2 (produced in-house), OptiPlate™-96 (Perkin Elmer). Buffer 1 consisted of 20 mM Na-HEPES plus 10 mM EDTA and pH was adjusted to 7.4. Buffer 2 consisted of 20 mM Na-HEPES plus 0.1 mM EDTA and pH was adjusted to 7.4. Assay buffer consisted of 50 mM HEPES supplemented with 5 mM EGTA, 5 mM MgCl2, 0.005% Tween 20 and pH was adjusted to 7.4. A 0.02% albumin stock consisted of HSA dissolved at 0.02% (w/v) in assay buffer. The cells used in this assay (clone FCW467-12A) were BHK cells with BHKTS13 as a parent cell line. The cells express the human GLP-1 receptor. The cells were grown at 5% CO2 in DMEM, 10% fetal calf serum, 1% Pen/Strep (Penicillin/Streptomycin) and 1.0 mg/ml of the selection marker G418. To make a membrane preparation the cells were grown to approximately 80% confluence. The cells were washed twice in phosphate-buffered saline and harvested. The cells were pelleted using a brief centrifugation and the cell pellet was kept on ice. The cell pellet was homogenised with ULTRA-THURRAX dispersing instrument for 20-30 seconds in a suitable amount of buffer 1 (e.g., 10 ml). The homogenate was centrifuged for 15 minutes. The pellet was re-suspended (homogenised) in 10 ml buffer 2 and centrifuged. This step was repeated once more. The resulting pellet was re-suspended in buffer 2 and the protein concentration was determined. The membranes were aliquoted and stored at minus 80° C. • 1. For the receptor binding assay 50 μl of the assay buffer was added to each well of an assay plate. • 2. Test compounds were serially diluted to give the following concentrations: 8×10EE-7 M, 8×10EE-8 M, 8×10EE-9 M, 8×10EE-10 M, 8×10EE-11 M, 8×10EE-12 M and 8×10EE-13 M. Twenty-five μl were added to appropriate wells in the assay plate. • 3. Cell membrane aliquots were thawed and diluted to their working concentration. Fifty μl were added to each well in the assay plate. • 4. WGA SPA beads were suspended in assay buffer at 20 mg/ml. The suspension was diluted to 10 mg/ml in assay buffer just prior to addition to the assay plate. Fifty μl were added to each well in the assay plate. • 5. The incubation was started by adding 25 μl of 480 pM solution of [125I]-GLP-1]-(7-36)NH2 to each well of the assay plate. A 25 μl aliquot was reserved for measuring total counts/well. • 6. The assay plate was incubated for 2 h at 30° C. • 7. The assay plate was centrifuged for 10 min. • 8. The assay plate was read in a Perkin Elmer TopCount NXT instrument. Calculations The data from the TopCount instrument were transferred to GraphPad Prism software. The software averaged the values for the replicates and performed a non-linear regression. IC50 values were calculated by the software and reported in nM. […]

IC50	SMILES
0.2 nM	CC[C@H](C)[C@H](NC(=O)[C@H](Cc1ccccc1)NC(=O)[C@H](CCC(=O)O)NC(=O)[C@H](CCCNC(=N)N)NC(=O)[C@H](C)NC(=O)[C@H](C)NC(=O)[C@H](CCCNC(=N)N)NC(=O)[C@H](CCCCNC(=O)CC[C@H](NC(=O)CC[C@H](NC(=O)COCCOCCNC(=O)COCCOCCNC(=O)CC[C@H](NC(=O)CCCCCCCCCCCCCCCCC(=O)O)C(=O)O)C(=O)O)C(=O)O)NC(=O)[C@H](CCC(=O)O)NC(=O)[C@H](CC(C)C)NC(=O)[C@H](Cc1ccc(O)cc1)NC(=O)[C@H](CCCCN)NC(=O)[C@H](CO)NC(=O)[C@@H](NC(=O)[C@H](CC(=O)O)NC(=O)[C@H](CO)NC(=O)[C@@H](NC(=O)[C@H](Cc1ccccc1)NC(=O)[C@@H](NC(=O)CNC(=O)[C@H](Cc1c[nH]cn1)NC(=O)C1(NC(=O)CCc2c[nH]cn2)CCC1)[C@@H](C)O)[C@@H](C)O)C(C)C)C(=O)N[C@@H](C)C(=O)N[C@@H](Cc1c[nH]c2ccccc12)C(=O)N[C@@H](CC(C)C)C(=O)N[C@@H](CC(C)C)C(=O)N[C@@H](CCCCN)C(=O)N[C@H](C(N)=O)[C@@H](C)O [Example 32, N^ε22-[(4S)-4-carboxy-4-[[(4S)-4-carboxy-4-[[2-[2-[2-[[2-[2-[2-[[(4S)-4-carboxy-4-(17-carboxyheptadecanoylamino)butanoyl]amino]ethoxy]ethoxy]acetyl]amino]ethoxy]ethoxy]acetyl]amino]butanoyl]amino]butanoyl]-[Imp7,Acb8,His9,Lys18,Lys22,Arg23,Arg26,Leu33,Thr35]-GLP-1-(7-35)-peptide amide] (Desaminohistidyl-[Ac4c]HGTFTSDVSKYLEK([γGlu-γGlu-AEEA-AEEA-γGlu-C18 diacid])RAAREFIAWLLKT-NH2)
0.2 nM	CC[C@H](C)[C@H](NC(=O)[C@H](Cc1ccccc1)NC(=O)[C@H](CCC(=O)O)NC(=O)[C@H](CCCNC(=N)N)NC(=O)[C@H](C)NC(=O)[C@H](C)NC(=O)[C@H](CCC(N)=O)NC(=O)[C@H](CCCCNC(=O)CC[C@H](NC(=O)CC[C@H](NC(=O)COCCOCCNC(=O)COCCOCCNC(=O)CC[C@H](NC(=O)CCCCCCCCCCCCCCCCC(=O)O)C(=O)O)C(=O)O)C(=O)O)NC(=O)[C@H](CCC(=O)O)NC(=O)[C@H](CC(C)C)NC(=O)[C@H](Cc1ccc(O)cc1)NC(=O)[C@H](CCCCN)NC(=O)[C@H](CO)NC(=O)[C@@H](NC(=O)[C@H](CC(=O)O)NC(=O)[C@H](CO)NC(=O)[C@@H](NC(=O)[C@H](Cc1ccccc1)NC(=O)[C@@H](NC(=O)CNC(=O)[C@H](Cc1c[nH]cn1)NC(=O)C1(NC(=O)CCc2c[nH]cn2)CCC1)[C@@H](C)O)[C@@H](C)O)C(C)C)C(=O)N[C@@H](C)C(=O)N[C@@H](Cc1c[nH]c2ccccc12)C(=O)N[C@@H](CC(C)C)C(=O)N[C@@H](CC(C)C)C(=O)N[C@@H](CCCCN)C(=O)N[C@H](C(N)=O)[C@@H](C)O [Example 33, N^ε22-[(4S)-4-carboxy-4-[[(4S)-4-carboxy-4-[[2-[2-[2-[[2-[2-[2-[[(4S)-4-carboxy-4-(17-carboxyheptadecanoylamino)butanoyl]amino]ethoxy]ethoxy]acetyl]amino]ethoxy]ethoxy]acetyl]amino]butanoyl]amino]butanoyl]-[Imp7,Acb8,His9,Lys18,Lys22,Arg26,Leu33,Thr35]-GLP-1-(7-35)-peptide amide] (Desaminohistidyl-[Ac4c]HGTFTSDVSKYLEK([γGlu-γGlu-AEEA-AEEA-γGlu-C18 diacid])QAAREFIAWLLKT-NH2)
0.4 nM	CC[C@H](C)[C@H](NC(=O)[C@H](Cc1ccccc1)NC(=O)[C@H](CCC(=O)O)NC(=O)[C@H](CCCNC(=N)N)NC(=O)[C@H](C)NC(=O)[C@H](C)NC(=O)[C@H](CCC(N)=O)NC(=O)[C@H](CCC(=O)O)NC(=O)[C@H](CCC(=O)O)NC(=O)[C@H](CC(C)C)NC(=O)[C@H](Cc1ccc(O)cc1)NC(=O)[C@H](CCCCN)NC(=O)[C@H](CO)NC(=O)[C@@H](NC(=O)[C@H](CC(=O)O)NC(=O)[C@H](CO)NC(=O)[C@@H](NC(=O)[C@H](Cc1ccccc1)NC(=O)[C@@H](NC(=O)CNC(=O)[C@H](Cc1c[nH]cn1)NC(=O)C(C)(C)NC(=O)CCc1c[nH]cn1)[C@@H](C)O)[C@@H](C)O)C(C)C)C(=O)N[C@@H](C)C(=O)N[C@@H](Cc1c[nH]c2ccccc12)C(=O)N[C@@H](CC(C)C)C(=O)N[C@@H](CC(C)C)C(=O)N[C@@H](CCCCNC(=O)COCCOCCNC(=O)COCCOCCNC(=O)CC[C@H](NC(=O)CC[C@H](NC(=O)CCCCCCCCCCCCCCCCCCC(=O)O)C(=O)O)C(=O)O)C(=O)N[C@H](C(N)=O)[C@@H](C)O [Example 40, N^ε34-[2-[2-[2-[[2-[2-[2-[[(4S)-4-carboxy-4-[[(4S)-4-carboxy-4-(19-carboxynonadecanoylamino)butanoyl]amino]butanoyl]amino]ethoxy]ethoxy]acetyl]amino]ethoxy]ethoxy]acetyl]-[Imp7,Aib8,His9,Lys18,Glu22,Arg26,Leu33,Thr35]-GLP-1-(7-35)-peptide amide] (Desaminohistidyl-[Aib]HGTFTSDVSKYLEEQAAREFIAWLLK([AEEA-AEEA-γGlu-γGlu-C20 diacid])T-NH2)
0.2 nM	CC[C@H](C)[C@H](NC(=O)[C@H](Cc1ccccc1)NC(=O)[C@H](CCC(=O)O)NC(=O)[C@H](CCCNC(=N)N)NC(=O)[C@H](C)NC(=O)[C@H](C)NC(=O)[C@H](CCC(N)=O)NC(=O)[C@H](CCC(=O)O)NC(=O)[C@H](CCC(=O)O)NC(=O)[C@H](CC(C)C)NC(=O)[C@H](Cc1ccc(O)cc1)NC(=O)[C@H](CCCCN)NC(=O)[C@H](CO)NC(=O)[C@@H](NC(=O)[C@H](CC(=O)O)NC(=O)[C@H](CO)NC(=O)[C@@H](NC(=O)[C@H](Cc1ccccc1)NC(=O)[C@@H](NC(=O)CNC(=O)[C@H](Cc1c[nH]cn1)NC(=O)C(C)(C)NC(=O)CCc1c[nH]cn1)[C@@H](C)O)[C@@H](C)O)C(C)C)C(=O)N[C@@H](C)C(=O)N[C@@H](Cc1c[nH]c2ccccc12)C(=O)N[C@@H](CC(C)C)C(=O)N[C@H](C(=O)N[C@@H](CCCCNC(=O)COCCOCCNC(=O)COCCOCCNC(=O)CC[C@H](NC(=O)CC[C@H](NC(=O)CCCCCCCCCCCCCCCCC(=O)O)C(=O)O)C(=O)O)C(=O)N[C@H](C(N)=O)[C@@H](C)O)[C@@H](C)CC [Example 42, N^ε34-[2-[2-[2-[[2-[2-[2-[[(4S)-4-carboxy-4-[[(4S)-4-carboxy-4-(17-carboxyheptadecanoylamino)butanoyl]amino]butanoyl]amino]ethoxy]ethoxy]acetyl]amino]ethoxy]ethoxy]acetyl]-[Imp7,Aib8, His9,Lys18,Glu22,Arg26,Ile33,Thr35]-GLP-1-(7-35)-peptide amide] (Desaminohistidyl-[Aib]HGTFTSDVSKYLEEQAAREFIAWLIK([AEEA-AEEA-γGlu-γGlu-C18 diacid])T-NH2)
